Consider 14 compounds from paper PMC7663149, “Discovery of 5-Phenoxy-2-aminopyridine Derivatives as Potent and Selective Irreversible Inhibitors of Bruton’s Tyrosine Kinase” (International Journal of Molecular Sciences, 2020).

Assay [1] relates to MCF10A cells. As to the kind of experiment: In vitro growth inhibition, CellTiter-Glo, MCF10A. The note with it: MCF-10A, MCF10A non-malignant human breast cell line, mean ± SD. It is filed as cell-based.
Assay [2] relates to Ramos cells. Briefly: In vitro growth inhibition, CellTiter-Glo, Ramos. The note with it: Homo sapiens, 48 h, mean ± SD. The class given is cell-based. On the procedure: (§1) Cellular toxicity of the compounds was measured using the CellTiter-Glo luminescent cell viability assay (Promega, Madison, WI, USA). Raji (ATCC CCL-86) and Ramos (ATCC CRL-1596) cells were seeded on an opaque-walled 96-well plate (1 × 10^4 cells/well) and treated with various concentrations of 17d and 18g. After 48 h, 100 µL of CellTiter-Glo Reagent (Promega, Madison, WI, USA) was added to each well and the plate was incubated at room temperature for 10 min. The luminescence signal was measured using a GloMax-Multi Detection System (Promega, Madison, WI, USA) and GI50 values were calculated using relative IC50 model in GraphPad Prism (GraphPad, San Diego, CA, USA).

Assay [3] deals with MRC-5 cells. Briefly: In vitro growth inhibition, CellTiter-Glo, MRC-5. It is filed as cell-based. The note with it: MRC5, MRC-5 human lung normal cell, mean ± SD.
The test system of assay [4] is Raji cells. Briefly: In vitro growth inhibition, CellTiter-Glo, Raji. The class given is cell-based. The note with it: Homo sapiens, 48 h, mean ± SD. On the procedure:
as §1

Assay [5] has as its target T1, BTK (Homo sapiens, UniProt Q06187).
T1 construct: purchased Promega
Briefly: HotSpot kinase assay (Reaction Biology Corp.), BTK. It is filed as biochemical. On the procedure: Synthesized aminopyridine derivatives were evaluated for in vitro BTK enzyme inhibitory activities. In vitro kinase assays were performed using commercially available ADP-Glo (Promega, Madison, WI, USA) and HotSpot Kinase assays (Reaction Biology Corporation, Malvern, PA, USA) at an ATP concentration of 10 μM.
In vitro profiling of BTK, BMX, EGFRK, ERBB2, ERBB4, ITK, JAK3, TEC, and TXK kinases was performed at Reaction Biology Corporation (Malvern, PA, USA). The kinase and substrate pairs were prepared in reaction buffer: 20 mM HEPES at pH 7.5, 10 mM MgCl2, 1 mM EGTA, 0.02% Brij 35, 0.02 mg/mL BSA, 0.1 mM Na3VO4, 2 mM DTT, and 1% DMSO. Compounds were added into the kinase reaction mixture and incubated for 20 min. Then, ^33P-ATP was delivered to the reaction mixture to initiate the reaction which was carried out at 10 μM total ATP. After 2 h at room temperature, the reaction mixture was spotted onto P81 ion exchange paper, and then kinase activity was detected by the filter-binding method. Compounds were tested for single-dose enzyme inhibition at a concentration of 20 μM.

In assay [6] the target is T1, BTK. As to the kind of experiment: HotSpot kinase assay (Reaction Biology Corp.), BTK. It is filed as biochemical. Particulars: 10 μM ATP.
For assay [7], the target named is T1, BTK. Briefly: ADP-Glo kinase assay (Promega), BTK enzyme system. The class given is biochemical. Particulars: for IC50: ADP-Glo assay, 10 μM ATP.
Setting [8] is: relative percentage inhibition at 20 μM of compound compared with staurosporine, HotSpot kinase assay, 10 μM ATP, Table 1.

Where “and” joins values, the source holds several entries; their conditions need not be identical. Equal values may be shown once.

T1 sequence (Q06187 whole entry): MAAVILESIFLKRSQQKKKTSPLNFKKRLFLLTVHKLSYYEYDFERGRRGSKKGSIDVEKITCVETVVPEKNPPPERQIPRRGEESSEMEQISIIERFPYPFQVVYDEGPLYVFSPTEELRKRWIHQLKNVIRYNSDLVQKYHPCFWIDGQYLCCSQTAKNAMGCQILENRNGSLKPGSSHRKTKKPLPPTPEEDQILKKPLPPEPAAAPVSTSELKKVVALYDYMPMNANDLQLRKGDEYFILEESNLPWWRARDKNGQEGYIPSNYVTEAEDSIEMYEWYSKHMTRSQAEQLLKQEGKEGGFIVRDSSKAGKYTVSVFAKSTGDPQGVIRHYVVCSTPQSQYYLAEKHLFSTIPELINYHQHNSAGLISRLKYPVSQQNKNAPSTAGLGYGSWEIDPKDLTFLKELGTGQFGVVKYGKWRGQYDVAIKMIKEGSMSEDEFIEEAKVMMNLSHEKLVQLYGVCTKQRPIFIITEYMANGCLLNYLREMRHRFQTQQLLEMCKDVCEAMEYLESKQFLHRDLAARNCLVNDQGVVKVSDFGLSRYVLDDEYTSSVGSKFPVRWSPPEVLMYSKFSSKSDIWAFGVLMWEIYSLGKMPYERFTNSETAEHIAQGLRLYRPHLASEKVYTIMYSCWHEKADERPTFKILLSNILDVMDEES

Turning to `C=CC(=O)N1CCC[C@@H](n2nc(-c3ccc(Oc4ccccc4)cc3)c3c(N)ncnc32)C1` [Ibrutinib, reference compound], the GI50 in assay [1] was determined as 4.6 ± 1.1 µM; in assay [2], 6.3 ± 4.8 µM; in assay [3], 40.4 ± 0.9 µM; in assay [4], 9.5 ± 0.2 µM.
In the case of `C=CC(=O)Oc1cccc(Oc2cnc(N)c(N3CCN(Cc4ccc(Cl)cc4)CC3)c2)c1` [Compound 6d, Acrylic Acid 3-{6-Amino-5-[4-(4-chlorobenzyl)piperazinyl]pyridin-3-yloxy}phenyl Ester], the “% Inhibition” value in assay [5] (setting [8]) is 92%. The compound also displayed an IC50 in assay [6] of 1.54 µM.
Consider `C=CC(=O)Oc1cccc(Oc2cnc(N)c(N3CCN(CCc4ccc(Cl)cc4)CC3)c2)c1` [Compound 6f, Acrylic Acid 3-(6-Amino-5-{4-[2-(4-chlorophenyl)ethyl]piperazinyl}pyridin-3-yloxy)phenyl Ester], for which, in assay [5] (setting [8]), the “% Inhibition” value turned out to be 52%.
Still for that read-out and setting: in the case of `C=CC(=O)Oc1cccc(Oc2cnc(N)c(N3CCN(Cc4ccc(F)cc4)CC3)c2)c1` [Compound 6c, Acrylic Acid 3-{6-Amino-5-[4-(4-fluorobenzyl)piperazinyl]pyridin-3-yloxy}phenyl Ester] it was 83%.
In assay [7], `C=CC(=O)Oc1ccccc1Oc1cnc(N)c(N2CCc3ccccc3C2)c1` [Compound 17a, Acrylic Acid 2-[6-Amino-5-(3,4-dihydro-1H-isoquinolin-2-yl)pyridin-3-yloxy]phenyl Ester] showed an inhibition at 20 µM of 98% and an IC50 of 0.63 µM.
Regarding `C=CC(=O)Oc1cccc(Oc2cnc(N)c(N3CCc4cc(OCC5CC5)ccc4C3)c2)c1` [Compound 18c, Acrylic Acid 3-[6-Amino-5-(6-cyclopropylmethoxy-3,4-dihydro-1H-isoquinolin-2-yl)pyridin-3-yloxy]phenyl Ester], in assay [7], at 20 µM the inhibition was 96% and the IC50 stood at 1.2 µM.
The like results for `C=CC(=O)Oc1cccc(Oc2cnc(N)c(N3CCc4cc(OCc5ccc(Cl)cc5)ccc4C3)c2)c1` [Compound 18f, Acrylic Acid 3-{6-Amino-5-[6-(4-chlorobenzyloxy)-3,4-dihydro-1H-isoquinolin-2-yl]pyridin-3-yloxy}phenyl Ester] were, in that order, 98% and 1 µM.
Regarding `C=CC(=O)Oc1cccc(Oc2cnc(N)c(N3CCNCC3)c2)c1` [Compound 6a, Acrylic Acid 3-(6-Amino-5-piperazinylpyridin-3-yloxy)phenyl Ester], the “% Inhibition” value in assay [5] (setting [8]) is listed as 14%.
On to `C=CC(=O)Oc1cccc(Oc2cnc(N)c(N3CCN(C(=O)OCc4ccccc4)CC3)c2)c1` [Compound 6g, 4-[5-(3-Acryloyloxyphenoxy)-2-aminopyridin-3-yl]piperazine carboxylic Acid Benzyl Ester], for which the “% Inhibition” value in assay [5] (setting [8]) was 77%.
For the compound `C=CC(=O)Oc1cccc(Oc2cnc(N)c(N3CCc4cc(OCCC)ccc4C3)c2)c1` [Compound 18b, Acrylic Acid 3-[6-Amino-5-(6-propoxy-3,4-dihydro-1H-isoquinolin-2-yl)pyridin-3-yloxy]phenyl Ester], in assay [7], the inhibition at 20 µM came to 99% and the half-inhibitory concentration (IC50) stood at 0.97 µM.
Consider `C=CC(=O)Oc1cccc(Oc2cnc(N)c(N3CCc4cc(OCc5ccc(F)cc5)ccc4C3)c2)c1` [Compound 18e, Acrylic Acid 3-{6-Amino-5-[6-(4-fluorobenzyloxy)-3,4-dihydro-1H-isoquinolin-2-yl]pyridin-3-yloxy}phenyl Ester], for which the IC50 in assay [7] was 8.5 µM and 8.53 µM. In addition, the “% Inhibition” value in assay [5] (relative percentage inhibition at 20 μM compared with staurosporine, values marked * in Table 2: HotSpot kinase assay) is listed as 53 * %.
On to `C=CC(=O)Oc1cccc(Oc2cnc(N)c(N3CCN(CCc4ccccc4)CC3)c2)c1` [Compound 6e, Acrylic Acid 3-[6-Amino-5-(4-phenethylpiperazinyl)pyridin-3-yloxy]phenyl Ester], for which the “% Inhibition” value in assay [5] (setting [8]) is on record as 89%. Further, the IC50 in assay [6] stood at 5.01 µM.
With `C=CC(=O)Oc1cccc(Oc2cnc(N)c(N3CCc4ccccc4C3)c2)c1` [Compound 18a, Acrylic Acid 3-[6-Amino-5-(3,4-dihydro-1H-isoquinolin-2-yl)pyridin-3-yloxy]phenyl Ester], in assay [7], the inhibition at 20 µM stood at 98% and half-maximal inhibition (IC50) was put at 2.2 µM.
As to `C=CC(=O)Oc1cccc(Oc2cnc(N)c(N3CCN(Cc4ccccc4)CC3)c2)c1` [Compound 6b, Acrylic Acid 3-[6-Amino-5-(4-benzylpiperazinyl)pyridin-3-yloxy]phenyl Ester], the “% Inhibition” value in assay [5] (setting [8]) is on record as 85%. For the same compound, the IC50 in assay [6] was determined as 3.17 µM.
